Data set [1] has as its system SARS-CoV. As to conditions: by interfering with glycosylation of ACE2; cited from earlier work.
Data set [2] relates to SARS-CoV-2. As to conditions: in vitro; cited from earlier work.
Data set [3] deals with COVID-19. The conditions noted are these: cited from earlier work.
The nature of data set [4]: Encapsulation efficiency and loading capacity of niclosamide by HPLC. As to conditions: niclosamide in niclosamide, HPLC 333-346 nm.
Data set [5] addresses SARS-CoV-2 spike glycoprotein (SGP) (Severe acute respiratory syndrome coronavirus 2, UniProt P0DTC2). The conditions noted are these: cited from earlier work.
In data set [6] the test system is patients with COPD. The conditions noted are these: cited from earlier work.
Data set [7] concerns severe coronavirus disease 2019 patients with coagulopathy. As to conditions: cited from earlier work.
Data set [8] concerns viruses including COVID-19 viruses. As to conditions: cited from earlier work.
The conditions of data set [9]: cited from earlier work.
Data set [10] concerns inhalation injury (IHI). The conditions noted are these: nebulized; cited from earlier work.

Read-outs that look alike come from different tables or passages of the source.

For orientation: mortality means the percentage killed.

With `CCN(CCO)CCCC(C)Nc1ccnc2cc(Cl)ccc12` (stereo not drawn) [hydroxychloroquine], the “replication of SARS-CoV” value in data set [1] was “specifically inhibit the replication of SARS-CoV”. The “viral copy number of SARS-CoV-2” value in data set [2] is reported as “effectively reduce the viral copy number”. Besides, in data set [3] (11 patients with severe COVID-19), the “clinical benefit of combination with azithromycin” value was “no evidence of clinical benefit”. In addition, the “effectiveness in COVID-19-associated pneumonia” value in data set [3] (several clinical trials in China) is on record as “to various degree effective”. In data set [3] (small open-label non-randomized clinical trial from France), the “clinical effect in combination with azithromycin” value is “positive effect”.
For `O=C(Nc1ccc([N+](=O)[O-])cc1Cl)c1cc(Cl)ccc1O` [niclosamide], in data set [4], the encapsulation efficiency is 90% and the loading capacity came out at 10.0%.
Turning to heparin, the SGP binding affinity entry in [5] is on record as “high sub-nanomolar affinity”. In addition, the lung function result in [6] (inhaled, 21 days of treatment, COPD patients receiving pulmonary rehabilitation) is reported as “significantly improves lung function”. In data set [6] (patients with moderate to very severe COPD), the “safety of inhaled nebulized UFH” value is on record as “safe”. Also, the mortality is on record as 40.0% in data set [7] (patients meeting sepsis induced coagulopathy (SIC) criteria ≥4, heparin therapy (vs 64.2%, P=0.029)) and 29.0% in data set [7] (patients with SIC score <4, heparin therapy (vs 22.6%, P=0.419)). Further, the “binding affinity to viruses” value in data set [8] is “nanomolar to sub-nanomolar”. In addition, in [9], the plasma protein binding result is given as “high plasma protein binding”. Moreover, the “lung function and mortality in IHI” value in data set [10] was “promotes improvement in lung function and decreased mortality”.

These data come from patent publication US12246089B2, “Method for treatment of a viral-mediated infectious disease” (Virothera Pharmaceuticals LLC, priority 2020, dated 2025).
